From patent publication US20250313862A1, “INHIBITION OF GENOTOXIC STRESS TO IMPROVE T CELL ENGINEERING” (GENENTECH, INC., priority 2022, published 2025)
Entries after “also recorded” stand apart in the source; their conditions may differ. Where a name gives a salt, the structure may show the parent alone.

Experiments:
[1] = tested on: human primary CD8+ T cells; experiment: T cell expansion fold of final cell product, 15-day T cell engineering process; format: cell-based; details: for cell expansion of final T cell product: day 15, average
Description: (§1) Peripheral blood mononuclear cells (PBMCs) were isolated from human cryopreserved leukopak using Ficoll gradient centrifugation ([…], 25 min). All samples were obtained from healthy donors genotyped with HLA A*02:01 MHC class I complex. Then CD8+ T cells were isolated using the Miltenyi AutoMACS cell separator according to the manufacturer's protocol. Isolated CD8+ T cells were then mixed with Miltenyi T cell TransACT reagent (1:100) (Catalog #130-111-160), 25 ng/mL IL-7 (Catalog #130-095-367), and 50 ng/mL IL-15 (Catalog #130-095-760) in Fuji Prime-XV medium (IrvineScientific Catalog #91154) for 48 h for activation.
(§2) Cells were electroporated with the 4D-Nucleofector System (Lonza) according to the manufacturer's protocol. After activation and inhibitor treatment, 10×10^6 (or 10 million) CD8+ T cells were washed and resuspended with Lonza P3 primary cell nucleofector solution (Catalog #V4XP-3024) and then mixed with pre-mixed RNP and DNA plasmid before transferring to Lonza 100-uL cuvette. After electroporation, 400 ul of FUJI Prime-XV medium was added to the cuvette and incubated for 15 min before seeding cells in culture flask. Pulse code used in this manuscript is EH115 for all circumstances.
(§3) All inhibitors were purchased from invivogen. Unless stated otherwise, cells were cultured with Fuji Prime-XV medium with 25 ng/ml IL-7 and 50 ng/ml IL-15 (Complete medium). After electroporation, T cells were carefully transferred to 24-well gREX (Wilsonwolf, Catalog: 80192M) at 1-2 million cells/cm^2 seeding density. 8 ml of complete medium were added per well and 50% of the medium was exchanged 6 days later. Cells were incubated at 37° C. and 5% CO2. The NucleoCounter NC-200 automated cell counter with the Via2-Casette were used in this study for cell counting and viability analysis.
(§4) Two days post activation, CD8+ T cells were washed and resuspended with FUJI Prime-XV complete medium containing inhibitors at the indicated concentrations for 6 h. After treatment, cells were washed and resuspended in Lonza P3 buffer prior to electroporation. Post transfection, T cells were cultured with FUJI Prime-XV complete medium without inhibitor.

[2] = tested on: human primary CD8+ T cells; experiment: Total edited cell (TEC) number in final drug product; format: cell-based; details: for TEC number: seeding 2 million cells, day 15, on average (FIG. 6C)
Excerpt: The total edited cell number (TECs) in the final drug product is arguably the most important metric for the adoptive cell transfer (ACT) and this, among a few other conditions, is considered one of the most important criteria for cell therapy purpose since it is expected to translate to the therapeutic impact in the clinic. Using the total cell number of the final cell product on day 15 multiplied by the percentage of knock-in, we get the TECs that are representative of our T cell engineering and culture output. With a starting seeding density of 2 million cells and without inhibitor treatment, as shown for the control conditions (CTR), the TEC numbers were approximately 5.24 million on average (FIG. 6C). However, when T cells were pre-treated with the indicated inhibitors, a significant increase in the output of TECs in all donors were observed (FIGS. 4C, 4F, 4I, FIGS. 5C, 5F), which was consistent with the cell expansion data.
as §2, §3
(§5) Dextramer antibodies for knock-in analysis were purchased from Immudex (Catalog: WB3469-PE, WT1) and used following manufacturer's protocol. Surface staining, CFSE staining, 7-AAD/annexin V staining, and intracellular staining were performed as previously described. Samples were analyzed using the BD FACSLyric flow cytometer (BD Biosciences) and FlowJo v10 software. For proliferation and cell killing assay, data were corrected by a negative control or target cell-only control.
as §4

[3] = tested on: human primary CD8+ T cells; experiment: T cell viability 48 h post transfection (NucleoCounter NC-200); format: cell-based; details: for culture viability improvement compared to the untreated control group (CTR): 6 h pretreatment prior to transfection, 48 h-post transfection, on average (FIG. 6A)
Description: as §1, §2, §3, §4

[4] = tested on: human primary CD8+ T cells; experiment: T cell phenotype of final T cell product by flow cytometry (TSCM, TCM, TEM, TE); format: cell-based; details: pre-treatment prior to transfection; day 15; different donors; hydrochloride
Description: as §5, §4

[5] = tested on: human primary CD8+ T cells; experiment: CFSE proliferation analysis, 72 h co-culture with WT1 peptide; format: cell-based; details: day 15 cells, WT1 peptide 72 h
Description: We next investigated proliferation of T cell after treatment with BX795. The final T cell product obtained from BX795 pre-treated or untreated groups were labeled with CFSE far-red, and co-cultured with WT1 peptide at the indicated concentrations for 72 h. […] T cells treated with higher concentration of WT1 peptide achieved high (˜60%) proliferation rates, implying the strong and antigen specific proliferation of the final T cell product. Finally, we compared T cells isolated from BX795 pre-treated as well as untreated control cultures in a target cell killing assay. Target cells T2 (T) were labeled with CFSE-far red, and then pulsed with 20 uM WT1 peptide before co-incubation with our final T cell product (E) at a ratio dependent manner. […] Of note, compared with the CTLs raised from conventional vaccine strategies, our T cells achieved high killing efficiency with much lower E:T ratio [19, 20], outlining the potential advantage of antigen-specific tumor cell killing of our TCR engineered T cells.
Dextramer antibodies for knock-in analysis were purchased from Immudex (Catalog: WB3469-PE, WT1) and used following manufacturer's protocol. Surface staining, CFSE staining, 7-AAD/annexin V staining, and intracellular staining were performed as previously described. Samples were analyzed using the BD FACSLyric flow cytometer (BD Biosciences) and FlowJo v10 software. […]

[6] = tested on: type 1 interferons (IFNa, IFNB) and proinflammatory cytokine (IL-6); experiment: Cytokine expression by qPCR 6 h post transfection; format: cell-based, human
Description: (§6) RNeasy Mini Kit (Cat. #74106) was purchased from Qiagen. TaqMan RNA-to-CT 1-Step Kit (Cat. #4392938) and Taqman primer-probe assays with reporter dye FAM and MGB quenchers were purchased from Thermo Fisher (assay information listed in Table 4). After RNA isolation, 2 ng RNA was mixed with Taqman primer-probe mix, TaqMan RNA-to-CT 1-Step master mix, and RT enzyme mix in a 10 uL qPCR system according to the manufacturer's protocol. Reaction readings were measured using QuantStudio 6 Flex machine and data was analyzed using QuantStudio Real-Time PCR software v1.2. PCR cycling conditions were 50° C. for 30 min, 95° C. for 10 min, 40× cycles of 95° C. for 15 s, 60° C. for 1 min. All data points were collected in triplicates, using RNA18S as internal control (sample ID: #Hs03928990_g1).
as §4

cGAS-STING pathway = cGAS-STING pathway activation in T cells (western blot and qPCR); format: cell-based, human; details: pretreatment prior to transfection (FIG. 8A); hydrochloride
Description: (§7) T cell pellets were collected, washed and stored as frozen pellets in −80° C. until use. Cell pellet processing, western blot experiments and data analysis were performed as previously described (Tang, J B C, 2020).
as §6, §4

TBK1 [7] = experiment: Western blot analysis of TBK1 phosphorylation post transfection; format: cell-based, human; details: post BX795 pre-treatment (FIG. 8A)
Description: as §7, §4

IRF3 = experiment: Western blot analysis of IRF3 phosphorylation post transfection; format: cell-based, human; details: pre-treatment at both medium and high concentrations (FIG. 8A)
Description: as §7, §4

TBK1 [8] = details: previous report [9]; cited from earlier work
[9] = tested on: human primary CD8+ T cells; experiment: Knock-in/knock-out efficiency by flow cytometry (MHC-peptide dextramer and TCR staining); format: cell-based
Description: as §2, §5, §4

[10] = tested on: human primary CD8+ T cells; experiment: T cell activation and cytokine expression after 24 h WT1 peptide pulse (flow cytometry); format: cell-based; details: day 15 cells pulsed 24 h with WT1 peptide
Description: The cGAS-STING pathway is crucial in detecting and neutralizing genotoxic stress. It is a main component of innate immune system that can trigger inflammation in response to cytosolic DNA detection. […] Harvested T cells from inhibitor treated and control groups were pulsed for 24 h with indicated concentrations of a specific peptide (WT1), which binds to the engineered TCR. […] Another major concern is the exhaustion of the engineered T cell cultures. To measure levels of T cell exhaustion, the expression of exhaustion markers, such as Tim3 and PD-1, was evaluated.
as §5

[11] = BX795-M (mid dosage 2.5 uM), day 15

CC(C)c1ccc2oc3nc(N)c(C(=O)O)cc3c(=O)c2c1 [Aml, 2-amino-5-oxo-7-propan-2-ylchromeno[2,3-b]pyridine-3-carboxylic acid]
cell expansion of final T cell product ([1]; 25 uM pre-treatment): 14.5 fold | average increase in TECs compared to the control group ([2]; 25 uM pre-treatment): 267.0% | TEC number ([2]; 25 uM pre-treatment): 14.7 million | culture viability improvement compared to the untreated control group (CTR) ([3]; 25 uM): about 2 fold

O=C(NCCCNc1nc(Nc2cccc(NC(=O)N3CCCC3)c2)ncc1I)c1cccs1 [BX795, N-[3-[[5-iodo-4-[[3-[(2-thienylcarbonyl)amino]propyl]amino]-2-pyrimidinyl]amino]phenyl]-1- Pyrrolidinecarboxamide hydrochloride]
cell expansion of final T cell product ([1]; 5 uM pre-treatment): 20.3 fold | T cell expansion rate ([1]; day 15, same donor as FIG. 8A (FIG. 8C)): increased T cell expansion rate | inhibitor performance by electroporation pulse code ([1]; pulse code EH115 vs other pulse codes): performs better in EH115 groups | T cell phenotype of final T cell product vs untreated control [4]: no impact on the final T cell product phenotype | T cell proliferation in response to antigen specific stimulation vs untreated [5]: comparable | levels of type 1 interferons (IFNa, IFNB) ([6]; BX795 removed prior to transfection): did not show a significant decrease | downstream cytokine expression (IFNa, IFNB, IL-6) ([6]; pre-treatment, 6 h post transfection (FIG. 8F)): reduced | cGAS/STING pathway activation (cGAS-STING pathway): considerable reduction in cGAS/STING pathway activation; also recorded: attenuates T cell cGAS-STING pathway | TBK1 phosphorylation (TBK1 [7]): not attenuated and was actually enhanced | phosphorylation of IRF3 post transfection (IRF3): attenuated phosphorylation of IRF3 | average increase in TECs compared to the control group ([2]; 2.5 uM pre-treatment): 303.4% | TEC number ([2]; 2.5 uM pre-treatment): 21.1 million | TEC numbers ([2]; day 15, same donor as FIG. 8A): improved TEC numbers | improvement in TEC compared to the control group ([2]; mid or high concentrations (2.5 uM and 5 um), statistically significant): more than 3 fold | culture viability improvement compared to the untreated control group (CTR) ([3]; 5 uM): about 2 fold | % viability ([3]; 48 h post transfection, same donor as FIG. 8A (FIG. 8B)): higher % viability | effectiveness in improving culture viability and growth among tested inhibitors ([3]; at 2.5 uM and 5 uM): most effective | enhancement in TBK1 phosphorylation (TBK1 [8]): 2 fold | exogenous TCR expression (knock-in) over the culture process vs control group ([9]; 2.5 uM pre-treated, day 4 to day 15 (FIG. 14B, 14C), hydrochloride): increases exogenous TCR expression; also recorded: enhances cell editing efficiency (knock-in) | knock-out efficiency in final cell product ([9]; BX795-H (high dosage 5 uM), day 15): 83.5% | knock-in ratio in final cell product [9, 11]: 61% | knock-out efficiency in final cell product [9, 11]: 86.7% | KI/KO ratio ([9]; day 15, same donor as FIG. 8A): equal or better KI/KO ratio | activation profile (CD137, IFNg, TNFa, Granzyme B expression) vs untreated control [10]: comparable activation profile

O=C(NCCCNc1nc(Nc2cccc(CN3CCOCC3)c2)ncc1C1CC1)C1CCC1 [MRT, N-[3-[[5-cyclopropyl-2-[3-(morpholin-4-ylmethyl)anilino]pyrimidin-4-yl]amino]propyl] cyclobutanecarboxamide]
cell expansion of final T cell product ([1]; 5 uM pre-treatment): 17.2 fold | average increase in TECs compared to the control group ([2]; 5 uM pre-treatment): 180% | TEC number ([2]; 5 uM pre-treatment): 17.4 million | culture viability improvement compared to the untreated control group (CTR) ([3]; 2.5 uM): about 2 fold
